Experimental data reported in publication PMC10872706 (The FEBS journal, 2023).
Where “and” joins values, the source holds several entries; their conditions need not be identical. Equal values may be shown once. Read-outs that look alike come from different tables or passages of the source.

Experiments:
E. coli PdxI [1] = target: T1, E. coli PdxI (Escherichia coli, UniProt P25906); test: Spectrophotometric kinetic characterisation of PdxI; conditions: for type of product inhibition with respect to NADPH: NADPH varied, PL fixed at 38 μM
T1 sequence (P25906 1-286): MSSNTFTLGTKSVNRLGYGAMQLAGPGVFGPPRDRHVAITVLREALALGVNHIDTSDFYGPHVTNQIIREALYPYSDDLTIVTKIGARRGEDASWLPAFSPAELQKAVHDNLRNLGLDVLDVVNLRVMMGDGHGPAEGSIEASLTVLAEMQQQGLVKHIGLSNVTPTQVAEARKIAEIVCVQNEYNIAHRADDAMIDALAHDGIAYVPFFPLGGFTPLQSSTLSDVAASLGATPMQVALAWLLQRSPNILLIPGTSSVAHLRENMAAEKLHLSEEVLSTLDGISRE

E. coli PdxI [2] = target: T1, E. coli PdxI; test: Isothermal titration calorimetry; type: binding
E. coli PdxI [3] = target: T1, E. coli PdxI; test: Differential scanning fluorimetry; type: binding; conditions: for increase of thermal stability: increasing concentrations of dinucleotide; for Kd: read-out: apparent dissociation constant, from changes of Tm as a function of NADP(H) concentration, 20 mM KPi pH 7.3; for Kd / effect on thermal stability (Tm) when added alone: 2 μM PdxI; for further change of Tm on adding vitamer to pre-incubated PdxI and dinucleotide: 200 μM vitamer, PL added to PdxI-NAD(P)+, PN to PdxI-NAD(P)H; for effect on thermal stability (Tm) when added alone: vitamers 100 μM, NAD+ or NADH 400 μM
E. coli PdxI [4] = target: T1, E. coli PdxI; test: Reactions catalysed by PdxI, discontinuous assay with HPLC quantification; type: biochemical
E. coli BW25113 cells = test: RT-qPCR relative expression of vitamin B6 metabolism genes; type: cell-based, Escherichia coli; conditions: 0.1 mM vitamer in M9, relative to M9 = 100%; for Expression level of pdxI: (*) P < 0.01
[5] = tested on: E. coli BW25113 pdxI knock out strain; type: cell-based, Escherichia coli; conditions: for beneficial effect of low concentrations on growth: low concentrations in M9 medium
[6] = tested on: E. coli BW25113 wild type; type: cell-based, Escherichia coli
[7] = tested on: E. coli BW25113 wild type; test: B6 vitamer levels in cell extracts by HPLC, wild type; type: cell-based, Escherichia coli
[8] = tested on: E. coli BW25113 pdxI knock out strain; type: cell-based, Escherichia coli
PdxK = conditions: cited from earlier work
[9] = tested on: E. coli pdxK, pdxY, pdxKY knock out strains; type: cell-based, Escherichia coli; conditions: M9 medium, all these strains
E. coli PdxI [10] = target: T1, E. coli PdxI; conditions: in vitro; cited from earlier work
[11] = ligand alone titrated into PdxI
[12] = ligand alone titrated into PdxI (binary complex)
[13] = ligand alone titrated into PdxI, 20°C, pH 7.4, NB = non-binding ligand
[14] = PL added to pre-incubated mixture of PdxI and NADPH (ternary complex)
[15] = medium supplemented with 1.5 mM PL
[16] = medium supplemented with 0.1 mM PN

Structure (SMILES): NC(=O)C1=CN([C@@H]2O[C@H](COP(=O)(O)OP(=O)(O)OC[C@H]3O[C@@H](n4cnc5c(N)ncnc54)[C@H](OP(=O)(O)O)[C@@H]3O)[C@@H](O)[C@H]2O)C=CC1 [NADPH, reduced nicotinamide adenine dinucleotide phosphate]
- Km (E. coli PdxI [1]; PL reduction to PN by NADPH, 37 °C, 20 mM KPi pH 7.3, 0.05 μM PdxI): 12 ± 4 µM
- N value (E. coli PdxI [2]; [11]): 1.13 ± 0.05
- ΔH (E. coli PdxI [2]; [12]): -2.964 ± 0.0335 kcal/mol
- ΔS (E. coli PdxI [2]; [12]): −18 ± 1 J mol^−1/deg
- Kd (E. coli PdxI [2]; [13]): 4.2 ± 0.35 µM
- increase of thermal stability (E. coli PdxI [3]): up to 9 °C
- Kd (E. coli PdxI [3]): 81 ± 16 µM

Structure (SMILES): Cc1ncc(CO)c(C=O)c1O [PL, pyridoxal]
- Kd (E. coli PdxI [2]): 0.024 ± 0.01 µM
- N value (E. coli PdxI [2]; PL added to pre-incubated 1:1 mixture of PdxI and NADPH): 0.61 and 0.61 ± 0.02
- ΔH (E. coli PdxI [2]; [14]): -0.884 ± 0.0359 kcal/mol
- ΔS (E. coli PdxI [2]; [14]): 22 ± 1 J mol^−1/deg
- PL converted into PN at equilibrium (E. coli PdxI [4]; 200 μM PL, 400 μM NADH, 0.2 μM PdxI): 98.3 ± 2.6%
- PL converted into PN at equilibrium (E. coli PdxI [4]; 200 μM PL, 400 μM NADPH, 0.2 μM PdxI): 96 ± 1.7%
- Expression level of pdxB (E. coli BW25113 cells): 97%
- Expression level of pdxH (E. coli BW25113 cells): 110%
- Expression level of pdxJ (E. coli BW25113 cells): 86%
- Expression level of pdxK (E. coli BW25113 cells): 105%
- Expression level of pdxY (E. coli BW25113 cells): 118%
- Expression level of ybhA (E. coli BW25113 cells): 110%
- Expression level of pdxI (E. coli BW25113 cells): 134% (*)
- effect on bacterial growth ([5]; 1 mM in M9 medium): toxicity
- effect on bacterial growth ([5]; 2 mM in M9 medium): nearly arrested
- beneficial effect of low concentrations on growth [5]: not visible
- effect on growth ([6]; up to 0.1 mM in M9 medium): beneficial
- effect on growth ([6]; up to 1 mM in M9 medium): abolish this beneficial effect
- increase of PL levels [7, 15]: about 800 fold
- increase of PL levels [8, 15]: about 3400 fold
- further change of Tm on adding vitamer to pre-incubated PdxI and dinucleotide (E. coli PdxI [3]): did not further increase Tm
- effect on thermal stability (Tm) when added alone (E. coli PdxI [3]): no effect
- kcat of PdxK (PdxK; PL as substrate): 2.3 s⁻¹
- Km (PdxK; read-out: KM for PL of PdxK): 100 µM
- concentration at which PL toxicity is observed [9]: ≥ 1400 µM

Structure (SMILES): Cc1ncc(CO)c(CN)c1O [PM, pyridoxamine]
- conversion of PM to PL (E. coli PdxI [4]; NADP+ as electron acceptor): could not be detected
- activity of PdxI with the substrate (E. coli PdxI [10]): no detectable activity

Structure (SMILES): NC(=O)c1ccc[n+]([C@@H]2O[C@H](COP(=O)([O-])OP(=O)(O)OC[C@H]3O[C@@H](n4cnc5c(N)ncnc54)[C@H](O)[C@@H]3O)[C@@H](O)[C@H]2O)c1 [NAD^+]
- effect on thermal stability (Tm) when added alone (E. coli PdxI [3]): no effect

Structure (SMILES): NC(=O)C1=CN([C@@H]2O[C@H](COP(=O)(O)OP(=O)(O)OC[C@H]3O[C@@H](n4cnc5c(N)ncnc54)[C@H](O)[C@@H]3O)[C@@H](O)[C@H]2O)C=CC1 [NADH]
- reaction rate with PL and NADH relative to that with NADPH (E. coli PdxI [4]; 200 μM PL, 400 μM dinucleotide): 10 times slower
- effect on thermal stability (Tm) when added alone (E. coli PdxI [3]): no effect

Structure (SMILES): Cc1ncc(COP(=O)(O)O)c(C=O)c1O [PLP, Pyridoxal 5’-phosphate]
- Km (E. coli PdxI [1]; PLP reduction to PNP by NADPH): > 1200 µM
- conversion of PLP into PNP (E. coli PdxI [4]; 200 μM PLP, 400 μM NADPH, 0.2 μM PdxI): apparently complete
- activity of PdxI with the substrate (E. coli PdxI [10]): no detectable activity
- effect on thermal stability (Tm) when added alone (E. coli PdxI [3]): no effect

Structure (SMILES): Cc1ncc(CO)c(CO)c1O [PN, pyridoxine]
- type of product inhibition with respect to NADPH (E. coli PdxI [1]): mixed inhibition
- PN converted to PL (reverse reaction) (E. coli PdxI [4]; 200 μM PN, 400 μM NADP+, 1 μM PdxI): 5 ± 1.3%
- Expression level of pdxB (E. coli BW25113 cells): 103%
- Expression level of pdxH (E. coli BW25113 cells): 95%
- Expression level of pdxJ (E. coli BW25113 cells): 88%
- Expression level of pdxK (E. coli BW25113 cells): 107%
- Expression level of pdxY (E. coli BW25113 cells): 115%
- Expression level of ybhA (E. coli BW25113 cells): 108%
- Expression level of pdxI (E. coli BW25113 cells): 98%
- beneficial effect of low concentrations on growth [5]: not visible
- effect on growth ([6]; up to 1 mM in M9 medium): beneficial effect
- rise of PLP levels [7, 16]: 1.5 fold
- rise of PLP levels [8, 16]: 1.8 fold
- further change of Tm on adding vitamer to pre-incubated PdxI and dinucleotide (E. coli PdxI [3]): did not further increase Tm
- effect on thermal stability (Tm) when added alone (E. coli PdxI [3]): no effect

Structure (SMILES): NC(=O)c1ccc[n+]([C@@H]2O[C@H](COP(=O)([O-])OP(=O)(O)OC[C@H]3O[C@@H](n4cnc5c(N)ncnc54)[C@H](OP(=O)(O)O)[C@@H]3O)[C@@H](O)[C@H]2O)c1 [NADP^+, oxidised nicotinamide adenine dinucleotide phosphate]
- type of product inhibition with respect to NADPH (E. coli PdxI [1]): competitive inhibitor
- N value (E. coli PdxI [2]; [11]): 0.99 ± 0.09
- ΔH (E. coli PdxI [2]; [12]): -5.16 ± 0.134 kcal/mol
- ΔS (E. coli PdxI [2]; [12]): −54 ± 2 J mol^−1/deg
- Kd (E. coli PdxI [2]; [13]): 46.3 ± 1.97 µM
- increase of thermal stability (E. coli PdxI [3]): up to 9 °C
- Kd (E. coli PdxI [3]): 856 ± 490 µM
